Consider 3 molecules from ChEMBL document CHEMBL1201862, “PubChem BioAssay data set” (2004).

Active and inactive are the calls of the source.

One assay concerns the target T1, Bcl-2-related protein A1 (Mus musculus, UniProt Q07440).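 Also: confirmatory dose–response counterscreen on Bfl-1, used to check hits from a UBC13 polyubiquitin inhibitor campaign.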
T1 sequence (Q07440 whole entry): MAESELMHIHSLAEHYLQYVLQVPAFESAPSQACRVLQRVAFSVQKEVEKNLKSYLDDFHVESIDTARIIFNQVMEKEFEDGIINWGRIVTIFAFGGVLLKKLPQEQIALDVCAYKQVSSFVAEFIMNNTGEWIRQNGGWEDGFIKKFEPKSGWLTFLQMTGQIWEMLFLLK
The class given is functional.

Assay [1] can be described thus: cytotoxicity in HEK-293T NF-kB-Luc cells, dose response, cytotoxicity control for B/T-cell NF-kB inhibitor project, cell-based, uHTS hits (AID 489019).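 Also: IC50 reflects cytotoxicity as loss of cell viability.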 It counts as functional.
Assay [2] in a line: inhibitors of clade B AD8 Env fusion, dose response, cell-based, cherry-pick (AID 652062).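 Also: luciferase signal from cell-cell fusion driven by HIV-1 clade B AD8 Env; potency is for inhibitors of fusion seen as a drop in luminescence.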 It counts as functional.
A further assay can be described thus: cells. The class given is functional, cell-based.
For assay [3], the target named is T2, Heat shock factor protein 1 (Mus musculus, UniProt P38532).
T2 sequence (P38532 whole entry): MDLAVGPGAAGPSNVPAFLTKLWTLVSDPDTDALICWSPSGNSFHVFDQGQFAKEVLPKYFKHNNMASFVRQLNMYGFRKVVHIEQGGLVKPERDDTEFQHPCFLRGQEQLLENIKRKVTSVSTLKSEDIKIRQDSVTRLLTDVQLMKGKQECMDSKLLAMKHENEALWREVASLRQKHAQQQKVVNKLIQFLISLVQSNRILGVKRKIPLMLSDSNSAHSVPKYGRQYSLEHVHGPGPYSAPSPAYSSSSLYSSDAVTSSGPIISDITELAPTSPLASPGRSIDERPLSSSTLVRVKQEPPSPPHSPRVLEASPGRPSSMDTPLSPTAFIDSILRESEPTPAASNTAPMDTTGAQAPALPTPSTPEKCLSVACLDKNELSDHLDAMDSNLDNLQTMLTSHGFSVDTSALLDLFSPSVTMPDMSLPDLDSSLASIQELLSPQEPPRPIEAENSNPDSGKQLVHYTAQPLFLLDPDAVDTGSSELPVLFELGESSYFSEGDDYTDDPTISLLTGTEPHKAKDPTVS
The experiment in a line: inhibition of MG132-induced HSE-luciferase signal, confirmation, cell-based, NIH3T3, luminescence, dose retest (AID 2382).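 Also: NIH3T3 fibroblasts with HSF1-driven luciferase reporter stressed by proteasome inhibitor MG132; luminescence from HSF1-driven luciferase expression after 8 hours of MG132 stress.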 The class given is functional.

Assay [4] is described as follows: inhibitors of SNCA 5'UTR-driven reporter translation, confirmation, H4 neuroglioma cells, luminescence (AID 1988). The class given is functional, cell-based.
In assay [5] the target is Sphingosine 1-phosphate receptor 1 (Homo sapiens, UniProt P21453). It counts as functional.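 Also: Tango beta-arrestin reporter U2OS cells stimulated with S1P near its EC80; inhibitor potency meaning antagonism of receptor activation by the natural agonist.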
A short description of assay [6]: Intein inhibitors as potential Tuberculosis drugs, a cytotoxicity screen. [Related pubchem assays (depositor defined):AID2221, AID2223, AID434968, AID435010, AID449749, AID449750, AID489010]. It counts as functional.
Assay [7] concerns the target T3, Replicative DNA helicase DnaB (Mycobacterium tuberculosis, UniProt P9WMR3).
T3 sequence (P9WMR3 whole entry): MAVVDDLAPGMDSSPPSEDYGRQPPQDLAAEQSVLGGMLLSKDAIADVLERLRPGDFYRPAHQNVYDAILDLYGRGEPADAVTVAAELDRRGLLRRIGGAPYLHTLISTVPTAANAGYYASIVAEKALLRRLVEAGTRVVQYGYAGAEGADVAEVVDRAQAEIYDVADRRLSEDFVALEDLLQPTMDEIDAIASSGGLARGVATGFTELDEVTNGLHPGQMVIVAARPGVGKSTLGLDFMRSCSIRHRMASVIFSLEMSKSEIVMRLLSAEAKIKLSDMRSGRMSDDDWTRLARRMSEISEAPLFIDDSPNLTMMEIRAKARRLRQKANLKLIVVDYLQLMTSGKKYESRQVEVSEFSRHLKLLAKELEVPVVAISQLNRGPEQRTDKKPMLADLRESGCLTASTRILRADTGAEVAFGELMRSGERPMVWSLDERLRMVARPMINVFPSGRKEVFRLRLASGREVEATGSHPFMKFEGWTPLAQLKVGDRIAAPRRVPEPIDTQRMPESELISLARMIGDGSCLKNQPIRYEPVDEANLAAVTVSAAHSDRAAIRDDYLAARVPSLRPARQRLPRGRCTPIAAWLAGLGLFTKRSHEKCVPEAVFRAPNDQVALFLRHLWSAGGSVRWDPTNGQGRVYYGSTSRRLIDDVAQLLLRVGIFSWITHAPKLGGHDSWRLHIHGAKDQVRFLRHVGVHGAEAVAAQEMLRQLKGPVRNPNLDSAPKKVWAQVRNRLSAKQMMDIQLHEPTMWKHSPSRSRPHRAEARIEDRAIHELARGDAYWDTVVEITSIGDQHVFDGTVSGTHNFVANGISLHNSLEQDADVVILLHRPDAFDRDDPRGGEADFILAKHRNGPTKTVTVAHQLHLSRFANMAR
As to the kind of experiment: DnaB Intein secondary assay Measured in Biochemical System Using Plate Reader - 2047-04_Inhibitor_Dose_DryPowder_Activity. [Related pubchem assays (depositor defined):AID2223].

A further assay deals with ORF 73 (Human herpesvirus 8, UniProt O40947). The experiment in a line: inhibitors of C-LANA binding to LBS DNA, dose response, biochemical, fluorescence polarization, cherry-picked samples (AID 504725).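 Also: fluorescence polarization of a labeled DNA duplex reporting LANA DNA binding; potency is for inhibitors that block LANA binding to the DNA.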 Further details: species or system Human gammaherpesvirus 8. In general terms: Polarisation of emitted light reports the rotation of a fluorescent probe.
The target in assay [8] is Intestinal-type alkaline phosphatase (Mus musculus, UniProt P24822). As to the kind of experiment: PubChem AID 488785. It counts as functional.
In assay [9] the target is Lysine-specific demethylase 4A (Homo sapiens, UniProt O75164). The experiment in a line: JMJD2A histone demethylase inhibitors, dose response, selectivity assay for GASC-1 inhibitor project, biochemical, DELFIA europium, cherry-picked samples (AID 488840).
The target in assay [10] is Lysine-specific demethylase 4C (Homo sapiens, UniProt Q9H3R0). The experiment in a line: GASC-1 (JMJD2C) histone demethylase inhibitors, dose response, biochemical, DELFIA europium, cherry-picked samples (AID 488835). It counts as functional.
The nature of assay [11]: HeLa cell cytotoxicity, dose response, cytotoxicity control for MgcRacGAP inhibitor project (AID 624300). The class given is functional.
For the next assay, the target named is T4, Caspase-7 (Homo sapiens, UniProt P55210).
T4 sequence (P55210 whole entry): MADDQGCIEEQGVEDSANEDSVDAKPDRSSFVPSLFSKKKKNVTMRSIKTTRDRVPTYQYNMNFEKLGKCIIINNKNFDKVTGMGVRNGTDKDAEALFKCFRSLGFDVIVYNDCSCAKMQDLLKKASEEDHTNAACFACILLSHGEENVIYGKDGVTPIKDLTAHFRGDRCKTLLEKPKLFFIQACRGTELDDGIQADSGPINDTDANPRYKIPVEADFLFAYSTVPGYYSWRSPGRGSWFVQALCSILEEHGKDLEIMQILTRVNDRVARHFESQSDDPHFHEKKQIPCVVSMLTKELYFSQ
The experiment in a line: human caspase-7 inhibitors, dose response, selectivity assay for caspase-6 inhibitor project, biochemical, DEVD-R110 fluorescence, cherry-pick (AID 743295). The class given is […].

For another assay, the target named is Caspase-8 (Homo sapiens, UniProt Q14790). As to the kind of experiment: caspase-8 inhibition counter-screen, dose response, selectivity assay for caspase-6 inhibitor project, biochemical, Z-IETD-R110 fluorescence, cherry-picked samples (AID 743294). A general note: A counterscreen serves to expose hits that act by an unwanted route or on another target.
Caspase-8, sequence (Q14790 217-374 limits assumed): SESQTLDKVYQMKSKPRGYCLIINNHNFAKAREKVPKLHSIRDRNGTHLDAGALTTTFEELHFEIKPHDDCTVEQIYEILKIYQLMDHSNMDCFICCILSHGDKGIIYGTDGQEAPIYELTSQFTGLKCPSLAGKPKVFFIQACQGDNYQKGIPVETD
Caspase-8, sequence (Q14790 385-479 limits assumed): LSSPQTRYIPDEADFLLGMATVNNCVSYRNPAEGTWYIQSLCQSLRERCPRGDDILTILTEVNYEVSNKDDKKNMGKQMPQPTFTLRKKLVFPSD

Sphingosine 1-phosphate receptor 1, sequence (P21453 whole entry): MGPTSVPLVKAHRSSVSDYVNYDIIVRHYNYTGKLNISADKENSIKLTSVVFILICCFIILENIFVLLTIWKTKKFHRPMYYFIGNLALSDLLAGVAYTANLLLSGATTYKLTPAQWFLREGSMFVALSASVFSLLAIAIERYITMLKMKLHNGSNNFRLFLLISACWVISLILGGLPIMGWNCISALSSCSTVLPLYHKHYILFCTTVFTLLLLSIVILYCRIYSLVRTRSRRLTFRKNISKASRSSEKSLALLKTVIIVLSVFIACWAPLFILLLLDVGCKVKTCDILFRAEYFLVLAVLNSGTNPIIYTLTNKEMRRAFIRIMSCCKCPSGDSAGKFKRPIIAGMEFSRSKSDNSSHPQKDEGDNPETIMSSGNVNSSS
Intestinal-type alkaline phosphatase, sequence (P24822 whole entry): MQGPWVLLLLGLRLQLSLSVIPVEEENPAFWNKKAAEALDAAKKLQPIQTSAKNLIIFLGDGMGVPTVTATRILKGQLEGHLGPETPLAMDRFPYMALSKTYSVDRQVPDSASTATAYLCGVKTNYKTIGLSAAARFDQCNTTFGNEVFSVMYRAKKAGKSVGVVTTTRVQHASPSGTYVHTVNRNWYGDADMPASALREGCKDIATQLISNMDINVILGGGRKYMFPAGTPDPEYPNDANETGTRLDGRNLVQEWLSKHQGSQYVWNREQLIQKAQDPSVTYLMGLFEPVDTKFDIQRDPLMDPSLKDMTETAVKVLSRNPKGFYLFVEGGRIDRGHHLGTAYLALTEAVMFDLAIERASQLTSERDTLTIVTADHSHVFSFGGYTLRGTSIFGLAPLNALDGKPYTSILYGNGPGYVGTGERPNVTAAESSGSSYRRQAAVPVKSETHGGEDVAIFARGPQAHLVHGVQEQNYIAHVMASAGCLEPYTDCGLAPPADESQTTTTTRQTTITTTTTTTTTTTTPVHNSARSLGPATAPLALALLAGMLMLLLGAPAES
Lysine-specific demethylase 4C, sequence (Q9H3R0 whole entry): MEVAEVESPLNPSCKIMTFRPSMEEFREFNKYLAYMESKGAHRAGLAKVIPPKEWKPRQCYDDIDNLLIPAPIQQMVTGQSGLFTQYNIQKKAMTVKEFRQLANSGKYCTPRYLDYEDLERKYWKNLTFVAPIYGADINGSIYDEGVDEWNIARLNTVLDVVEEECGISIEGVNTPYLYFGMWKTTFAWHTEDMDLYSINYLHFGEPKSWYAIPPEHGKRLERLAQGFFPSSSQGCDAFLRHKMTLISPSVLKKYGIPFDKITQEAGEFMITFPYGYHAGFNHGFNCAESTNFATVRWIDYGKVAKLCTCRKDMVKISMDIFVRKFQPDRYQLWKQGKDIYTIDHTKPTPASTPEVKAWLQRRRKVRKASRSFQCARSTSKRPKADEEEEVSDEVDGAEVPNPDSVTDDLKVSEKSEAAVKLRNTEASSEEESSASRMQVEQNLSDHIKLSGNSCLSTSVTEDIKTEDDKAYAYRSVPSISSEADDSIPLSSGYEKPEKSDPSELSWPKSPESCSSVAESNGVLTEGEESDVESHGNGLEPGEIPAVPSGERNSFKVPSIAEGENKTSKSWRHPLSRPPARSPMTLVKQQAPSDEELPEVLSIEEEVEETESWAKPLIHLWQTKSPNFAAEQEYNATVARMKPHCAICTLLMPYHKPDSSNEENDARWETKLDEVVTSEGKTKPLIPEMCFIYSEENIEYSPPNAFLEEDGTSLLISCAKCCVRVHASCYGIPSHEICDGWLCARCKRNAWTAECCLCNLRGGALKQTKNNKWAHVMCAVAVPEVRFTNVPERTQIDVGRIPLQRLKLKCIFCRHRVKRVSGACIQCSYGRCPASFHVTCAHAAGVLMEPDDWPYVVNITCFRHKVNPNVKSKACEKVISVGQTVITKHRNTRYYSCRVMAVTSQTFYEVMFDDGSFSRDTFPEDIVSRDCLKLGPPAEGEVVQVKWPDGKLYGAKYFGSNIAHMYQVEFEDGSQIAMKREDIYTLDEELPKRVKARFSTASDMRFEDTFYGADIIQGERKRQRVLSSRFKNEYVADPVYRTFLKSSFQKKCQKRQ
Lysine-specific demethylase 4A, sequence (O75164 whole entry): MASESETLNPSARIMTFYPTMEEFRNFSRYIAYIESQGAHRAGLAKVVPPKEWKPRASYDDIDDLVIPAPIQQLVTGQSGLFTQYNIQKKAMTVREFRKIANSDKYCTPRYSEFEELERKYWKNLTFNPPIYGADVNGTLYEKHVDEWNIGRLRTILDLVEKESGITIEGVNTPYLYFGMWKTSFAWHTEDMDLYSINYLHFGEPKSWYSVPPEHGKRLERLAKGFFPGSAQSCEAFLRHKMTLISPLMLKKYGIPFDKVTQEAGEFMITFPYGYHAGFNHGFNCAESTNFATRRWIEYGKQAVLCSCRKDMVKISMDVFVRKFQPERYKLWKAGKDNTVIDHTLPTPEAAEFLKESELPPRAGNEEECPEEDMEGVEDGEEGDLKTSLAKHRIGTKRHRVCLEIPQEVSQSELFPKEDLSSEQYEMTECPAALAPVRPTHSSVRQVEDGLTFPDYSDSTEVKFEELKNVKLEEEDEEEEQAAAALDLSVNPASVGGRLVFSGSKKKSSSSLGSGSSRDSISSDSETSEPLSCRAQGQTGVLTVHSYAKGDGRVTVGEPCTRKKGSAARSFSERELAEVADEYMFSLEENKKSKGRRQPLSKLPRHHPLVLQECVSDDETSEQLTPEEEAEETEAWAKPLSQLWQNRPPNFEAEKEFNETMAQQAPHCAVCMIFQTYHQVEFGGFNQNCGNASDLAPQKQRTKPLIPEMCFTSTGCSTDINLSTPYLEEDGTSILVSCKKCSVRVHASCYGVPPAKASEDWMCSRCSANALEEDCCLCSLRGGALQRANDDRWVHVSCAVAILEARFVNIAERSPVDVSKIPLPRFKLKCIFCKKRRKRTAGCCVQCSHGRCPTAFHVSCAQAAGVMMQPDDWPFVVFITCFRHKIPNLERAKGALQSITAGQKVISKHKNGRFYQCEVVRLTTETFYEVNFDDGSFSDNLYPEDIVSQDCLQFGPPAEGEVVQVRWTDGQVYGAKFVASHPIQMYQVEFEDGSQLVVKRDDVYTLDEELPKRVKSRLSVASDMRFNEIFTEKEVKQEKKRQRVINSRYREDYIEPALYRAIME
ORF 73, sequence (O40947 whole entry): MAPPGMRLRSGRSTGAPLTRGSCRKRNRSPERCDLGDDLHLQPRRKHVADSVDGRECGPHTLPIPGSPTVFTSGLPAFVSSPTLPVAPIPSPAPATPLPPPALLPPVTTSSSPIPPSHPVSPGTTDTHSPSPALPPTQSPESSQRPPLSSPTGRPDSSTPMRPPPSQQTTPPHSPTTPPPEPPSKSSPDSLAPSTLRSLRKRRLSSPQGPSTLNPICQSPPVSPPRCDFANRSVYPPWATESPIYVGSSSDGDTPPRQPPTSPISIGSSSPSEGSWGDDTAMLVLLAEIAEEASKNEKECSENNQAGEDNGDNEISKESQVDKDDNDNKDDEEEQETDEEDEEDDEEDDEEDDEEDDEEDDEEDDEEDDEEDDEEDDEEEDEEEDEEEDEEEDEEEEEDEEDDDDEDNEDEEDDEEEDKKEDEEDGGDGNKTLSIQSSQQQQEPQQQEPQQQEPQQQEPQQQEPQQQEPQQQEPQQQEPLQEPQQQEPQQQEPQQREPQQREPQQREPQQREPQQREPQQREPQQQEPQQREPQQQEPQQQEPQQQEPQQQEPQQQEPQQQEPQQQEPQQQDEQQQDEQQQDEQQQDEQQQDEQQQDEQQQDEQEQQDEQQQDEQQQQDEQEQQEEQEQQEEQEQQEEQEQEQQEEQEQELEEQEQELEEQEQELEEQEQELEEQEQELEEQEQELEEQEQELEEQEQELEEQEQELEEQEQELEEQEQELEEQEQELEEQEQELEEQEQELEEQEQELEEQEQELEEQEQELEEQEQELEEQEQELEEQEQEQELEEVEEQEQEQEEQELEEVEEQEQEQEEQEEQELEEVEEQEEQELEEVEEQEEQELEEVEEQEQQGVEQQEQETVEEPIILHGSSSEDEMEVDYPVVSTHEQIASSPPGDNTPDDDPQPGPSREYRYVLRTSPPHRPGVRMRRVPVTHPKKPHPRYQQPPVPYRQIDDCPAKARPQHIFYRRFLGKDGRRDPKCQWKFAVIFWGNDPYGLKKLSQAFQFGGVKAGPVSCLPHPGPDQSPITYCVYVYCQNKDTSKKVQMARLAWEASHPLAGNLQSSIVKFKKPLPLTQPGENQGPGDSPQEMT

For the molecule `CCCCCCCCCCOC(=O)C[n+]1c(COc2ccccc2OC)n(C)c2ccccc21`, the figures for the IC50 (at Bcl-2-related protein A1; in [1]) were 18.4 µM (active) and 54.4 µM (inactive), respectively. In addition, the AC50 (usually the concentration giving half of the maximal activity seen) in assay [2] is 4.02 µM (active).
`Cc1oc2c(c1C(=O)NCc1cccnc1)C(=O)c1ccccc1C2=O`: the half-maximal effective concentration (EC50) (as a rule, the concentration needed to bring the measured effect to its halfway point) was 0.232 µM (active) in the assay “cells”, 0.304 µM (active) in [3] and < 0.1 µM (active) in assay [4]. In addition, in assay [5], the IC50 (usually the concentration needed to halve the response being measured) is 3.65 µM (active). Moreover, in assay [6], the CC50 (as a rule, the concentration that lowers cell viability or growth by half) is 0.52 µM (active). Moreover, the concentration at half-maximal activity (AC50) in assay [7] is 1.15 µM (active).
Consider `O=c1ccc2c(-c3ccccc3S(=O)(=O)O)c3ccc(O)c(O)c3oc-2c1O` [PYROGALLOL RED], for which the half-maximal activity concentration (AC50) is 0.526 µM (active) at ORF 73; 2.63 µM (active) in assay [9]; 1.78 µM (active) in assay [10]; > 70 µM (inactive) on Caspase-7; > 70 µM (inactive) on Caspase-8. Also, the IC50 in assay [8] is 12.4 µM (active). The CC50 in assay [11] is 100 µM (active).
